Key:
Format in all cases: cell-based
[1] = biological target: proteins of U3A human fibrosarcoma cells (4462 proteins detected) (Homo sapiens, UniProt Q9NPF4); settings: protein OSGEP; soluble abundance after heat, U3A cells
[2] = biological target: proteins of U3A human fibrosarcoma cells (4462 proteins detected) (Homo sapiens, UniProt Q03252); settings: protein LMNB2; U3A cells
[3] = biological target: proteins of U3A human fibrosarcoma cells (4462 proteins detected) (Homo sapiens, UniProt Q9BT78); settings: protein COPS4; U3A cells
[4] = biological target: proteins of U3A human fibrosarcoma cells (4462 proteins detected) (Homo sapiens, UniProt Q9P2E9); settings: protein RRBP1; soluble abundance after heat, U3A cells
[5] = biological target: proteins of U3A human fibrosarcoma cells (4462 proteins detected) (Homo sapiens, UniProt Q6P1L8); settings: protein MRPL14, U3A cells
[6] = biological target: proteins of U3A human fibrosarcoma cells (4462 proteins detected) (Homo sapiens, UniProt Q6P3W2); settings: protein DNAJC24; ZCSL3, U3A cells
[7] = biological target: proteins of U3A human fibrosarcoma cells (4462 proteins detected) (Homo sapiens, UniProt O94915); settings: protein FRYL; U3A, 10 μM, 2 h
[8] = biological target: proteins of U3A human fibrosarcoma cells (4462 proteins detected) (Homo sapiens, UniProt Q15814); settings: protein TBCC; U3A cells
[9] = biological target: proteins of U3A human fibrosarcoma cells (4462 proteins detected) (Homo sapiens, UniProt Q8TBZ3); settings: protein WDR20, U3A cells
[10] = biological target: proteins of U3A human fibrosarcoma cells (4462 proteins detected) (Homo sapiens, UniProt Q96BP2); settings: protein CHCHD1; soluble abundance after heat, U3A cells
[11] = biological target: proteins of U3A human fibrosarcoma cells (4462 proteins detected) (Homo sapiens, UniProt Q15041); settings: protein ARL6IP1; U3A cells
[12] = biological target: proteins of U3A human fibrosarcoma cells (4462 proteins detected) (Homo sapiens, UniProt Q9NX58); settings: protein LYAR; U3A cells
[13] = biological target: proteins of U3A human fibrosarcoma cells (4462 proteins detected) (Homo sapiens, UniProt O75367); settings: protein H2AFY; U3A, 10 μM, 2 h
[14] = biological target: proteins of U3A human fibrosarcoma cells (4462 proteins detected) (Homo sapiens, UniProt P39748); settings: protein FEN1; U3A, 10 μM, 2 h
[15] = biological target: proteins of U3A human fibrosarcoma cells (4462 proteins detected) (Homo sapiens, UniProt Q9BY32); settings: protein ITPA; soluble abundance after heat, U3A cells
[16] = biological target: proteins of U3A human fibrosarcoma cells (4462 proteins detected) (Homo sapiens, UniProt O75170); settings: protein PPP6R2; soluble abundance after heat, U3A cells
[17] = biological target: proteins of U3A human fibrosarcoma cells (4462 proteins detected) (Homo sapiens, UniProt Q9NVZ3); settings: protein NECAP2; U3A cells
[18] = biological target: proteins of U3A human fibrosarcoma cells (4462 proteins detected) (Homo sapiens, UniProt P07910); settings: protein HNRNPC; U3A, 10 μM, 2 h
[19] = biological target: proteins of U3A human fibrosarcoma cells (4462 proteins detected) (Homo sapiens, UniProt Q9Y2K1); settings: protein ZBTB1; U3A cells
[20] = biological target: proteins of U3A human fibrosarcoma cells (4462 proteins detected) (Homo sapiens, UniProt O75449); settings: protein KATNA1; U3A cells
[21] = biological target: proteins of U3A human fibrosarcoma cells (4462 proteins detected) (Homo sapiens, UniProt Q7L5Y9); settings: protein MAEA; U3A cells
[22] = biological target: proteins of U3A human fibrosarcoma cells (4462 proteins detected) (Homo sapiens, UniProt P28482); settings: protein MAPK1; soluble abundance after heat, U3A cells
[23] = biological target: proteins of U3A human fibrosarcoma cells (4462 proteins detected) (Homo sapiens, UniProt Q15468); settings: protein STIL; U3A, 10 μM, 2 h
[24] = biological target: proteins of U3A human fibrosarcoma cells (4462 proteins detected) (Homo sapiens, UniProt Q8TDN6); settings: protein BRIX1; U3A cells
[25] = biological target: proteins of U3A human fibrosarcoma cells (4462 proteins detected) (Homo sapiens, UniProt Q9H944); settings: protein MED20; U3A cells
[26] = biological target: proteins of U3A human fibrosarcoma cells (4462 proteins detected) (Homo sapiens, UniProt P35221); settings: protein CTNNA1; U3A, 10 μM, 2 h
[27] = biological target: proteins of U3A human fibrosarcoma cells (4462 proteins detected) (Homo sapiens, UniProt Q8IWW6); settings: protein ARHGAP12; soluble abundance after heat, U3A cells
[28] = biological target: proteins of U3A human fibrosarcoma cells (4462 proteins detected) (Homo sapiens, UniProt P06756); settings: protein ITGAV; soluble abundance after heat, U3A cells
[29] = biological target: proteins of U3A human fibrosarcoma cells (4462 proteins detected) (Homo sapiens, UniProt Q9NQW6); settings: protein ANLN; soluble abundance after heat, U3A cells

proteins of U3A human fibrosarcoma cells (4462 proteins detected) (Homo sapiens, UniProt Q9P2E9), sequence (Q9P2E9 whole entry): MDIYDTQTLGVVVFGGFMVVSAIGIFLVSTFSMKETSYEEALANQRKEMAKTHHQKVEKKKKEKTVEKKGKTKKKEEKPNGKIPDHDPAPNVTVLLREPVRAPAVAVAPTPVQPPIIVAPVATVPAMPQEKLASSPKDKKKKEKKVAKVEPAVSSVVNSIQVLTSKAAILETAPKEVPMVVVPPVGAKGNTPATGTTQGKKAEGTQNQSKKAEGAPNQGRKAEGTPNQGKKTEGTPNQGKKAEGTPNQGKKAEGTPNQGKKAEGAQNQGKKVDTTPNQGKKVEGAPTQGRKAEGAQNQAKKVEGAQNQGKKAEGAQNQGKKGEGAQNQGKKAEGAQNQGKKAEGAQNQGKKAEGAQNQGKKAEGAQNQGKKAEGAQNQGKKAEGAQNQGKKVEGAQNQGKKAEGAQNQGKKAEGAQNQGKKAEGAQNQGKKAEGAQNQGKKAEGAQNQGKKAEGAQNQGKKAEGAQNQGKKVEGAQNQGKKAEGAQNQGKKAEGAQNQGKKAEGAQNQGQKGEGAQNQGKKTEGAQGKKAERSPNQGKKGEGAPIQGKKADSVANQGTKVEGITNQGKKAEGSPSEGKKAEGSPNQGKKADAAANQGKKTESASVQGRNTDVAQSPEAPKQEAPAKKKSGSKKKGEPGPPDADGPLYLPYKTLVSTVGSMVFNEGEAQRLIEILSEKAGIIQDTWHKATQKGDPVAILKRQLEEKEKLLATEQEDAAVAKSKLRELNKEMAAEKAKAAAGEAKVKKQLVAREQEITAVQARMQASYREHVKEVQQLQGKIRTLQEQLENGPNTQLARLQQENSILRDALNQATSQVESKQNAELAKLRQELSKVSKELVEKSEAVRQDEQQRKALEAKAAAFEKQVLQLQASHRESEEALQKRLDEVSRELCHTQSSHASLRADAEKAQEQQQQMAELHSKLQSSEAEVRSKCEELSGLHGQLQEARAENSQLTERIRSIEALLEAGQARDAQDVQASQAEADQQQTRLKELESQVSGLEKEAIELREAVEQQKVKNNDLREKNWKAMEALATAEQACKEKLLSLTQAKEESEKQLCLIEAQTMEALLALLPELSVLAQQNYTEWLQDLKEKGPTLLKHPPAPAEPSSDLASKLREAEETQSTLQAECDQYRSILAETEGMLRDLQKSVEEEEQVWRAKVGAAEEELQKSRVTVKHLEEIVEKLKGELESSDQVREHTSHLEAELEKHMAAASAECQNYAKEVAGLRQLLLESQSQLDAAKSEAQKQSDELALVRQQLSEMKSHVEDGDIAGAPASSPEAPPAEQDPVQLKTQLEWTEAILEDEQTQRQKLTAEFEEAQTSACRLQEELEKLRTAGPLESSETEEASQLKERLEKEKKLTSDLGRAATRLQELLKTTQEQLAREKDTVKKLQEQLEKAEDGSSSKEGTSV
proteins of U3A human fibrosarcoma cells (4462 proteins detected) (Homo sapiens, UniProt P28482), sequence (P28482 whole entry): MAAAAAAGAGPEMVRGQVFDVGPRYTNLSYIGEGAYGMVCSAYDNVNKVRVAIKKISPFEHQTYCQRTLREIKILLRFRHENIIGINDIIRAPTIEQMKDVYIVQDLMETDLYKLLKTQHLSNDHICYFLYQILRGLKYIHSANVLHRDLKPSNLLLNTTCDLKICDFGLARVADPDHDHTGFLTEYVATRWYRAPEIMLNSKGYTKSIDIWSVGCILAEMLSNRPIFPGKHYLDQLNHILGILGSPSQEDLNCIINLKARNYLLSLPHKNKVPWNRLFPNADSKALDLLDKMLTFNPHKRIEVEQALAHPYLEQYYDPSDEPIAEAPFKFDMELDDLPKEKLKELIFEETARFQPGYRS
proteins of U3A human fibrosarcoma cells (4462 proteins detected) (Homo sapiens, UniProt Q8IWW6), sequence (Q8IWW6 whole entry): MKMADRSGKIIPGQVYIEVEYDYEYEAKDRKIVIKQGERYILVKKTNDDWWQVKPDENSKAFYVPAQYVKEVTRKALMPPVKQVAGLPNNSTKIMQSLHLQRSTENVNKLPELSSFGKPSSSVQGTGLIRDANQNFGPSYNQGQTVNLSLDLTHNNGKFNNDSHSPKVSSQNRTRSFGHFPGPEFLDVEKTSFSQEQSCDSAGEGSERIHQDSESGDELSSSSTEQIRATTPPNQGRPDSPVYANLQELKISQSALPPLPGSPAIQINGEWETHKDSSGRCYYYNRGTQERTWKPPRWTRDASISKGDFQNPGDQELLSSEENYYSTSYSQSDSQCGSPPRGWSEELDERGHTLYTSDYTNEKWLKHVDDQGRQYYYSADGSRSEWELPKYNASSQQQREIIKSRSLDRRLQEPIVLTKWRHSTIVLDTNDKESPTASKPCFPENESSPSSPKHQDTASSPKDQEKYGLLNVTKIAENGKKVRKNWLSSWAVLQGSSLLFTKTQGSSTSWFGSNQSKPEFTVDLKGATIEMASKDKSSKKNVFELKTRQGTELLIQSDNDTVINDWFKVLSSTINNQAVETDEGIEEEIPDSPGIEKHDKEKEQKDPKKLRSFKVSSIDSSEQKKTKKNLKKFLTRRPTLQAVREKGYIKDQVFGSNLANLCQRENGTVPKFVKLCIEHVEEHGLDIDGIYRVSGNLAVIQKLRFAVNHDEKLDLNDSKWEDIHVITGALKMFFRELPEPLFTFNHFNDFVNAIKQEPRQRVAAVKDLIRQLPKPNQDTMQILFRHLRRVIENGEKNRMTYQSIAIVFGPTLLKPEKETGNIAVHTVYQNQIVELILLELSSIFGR
proteins of U3A human fibrosarcoma cells (4462 proteins detected) (Homo sapiens, UniProt Q9NX58), sequence (Q9NX58 whole entry): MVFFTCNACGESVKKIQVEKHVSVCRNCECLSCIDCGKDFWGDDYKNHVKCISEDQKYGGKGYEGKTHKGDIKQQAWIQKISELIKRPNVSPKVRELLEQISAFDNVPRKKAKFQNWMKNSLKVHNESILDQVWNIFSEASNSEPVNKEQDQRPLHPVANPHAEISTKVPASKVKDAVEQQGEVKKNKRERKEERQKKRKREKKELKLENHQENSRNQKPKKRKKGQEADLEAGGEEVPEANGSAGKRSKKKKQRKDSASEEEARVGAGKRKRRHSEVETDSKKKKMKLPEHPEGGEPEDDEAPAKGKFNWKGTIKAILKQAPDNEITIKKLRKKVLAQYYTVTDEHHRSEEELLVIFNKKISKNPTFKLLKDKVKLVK
proteins of U3A human fibrosarcoma cells (4462 proteins detected) (Homo sapiens, UniProt Q8TDN6), sequence (Q8TDN6 whole entry): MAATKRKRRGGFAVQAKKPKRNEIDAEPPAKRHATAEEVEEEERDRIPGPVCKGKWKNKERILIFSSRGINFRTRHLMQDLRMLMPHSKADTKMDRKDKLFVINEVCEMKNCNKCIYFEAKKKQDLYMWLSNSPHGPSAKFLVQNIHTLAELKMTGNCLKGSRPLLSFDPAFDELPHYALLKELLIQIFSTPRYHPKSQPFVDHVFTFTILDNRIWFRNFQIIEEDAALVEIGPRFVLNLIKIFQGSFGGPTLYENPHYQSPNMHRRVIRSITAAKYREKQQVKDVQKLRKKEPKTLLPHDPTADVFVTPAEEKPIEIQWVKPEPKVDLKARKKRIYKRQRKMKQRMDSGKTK
proteins of U3A human fibrosarcoma cells (4462 proteins detected) (Homo sapiens, UniProt Q7L5Y9), sequence (Q7L5Y9 whole entry): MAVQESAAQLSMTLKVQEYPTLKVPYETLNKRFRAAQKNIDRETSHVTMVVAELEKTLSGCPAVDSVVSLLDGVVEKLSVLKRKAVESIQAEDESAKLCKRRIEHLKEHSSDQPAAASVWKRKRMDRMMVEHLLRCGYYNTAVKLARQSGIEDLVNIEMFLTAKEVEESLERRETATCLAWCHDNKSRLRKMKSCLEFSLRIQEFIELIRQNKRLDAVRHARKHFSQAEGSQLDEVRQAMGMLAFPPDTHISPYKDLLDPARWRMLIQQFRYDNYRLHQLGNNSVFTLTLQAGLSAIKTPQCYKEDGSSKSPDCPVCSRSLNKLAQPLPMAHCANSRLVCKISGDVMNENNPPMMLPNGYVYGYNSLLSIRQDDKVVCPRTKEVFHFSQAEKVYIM
proteins of U3A human fibrosarcoma cells (4462 proteins detected) (Homo sapiens, UniProt Q03252), sequence (Q03252 whole entry): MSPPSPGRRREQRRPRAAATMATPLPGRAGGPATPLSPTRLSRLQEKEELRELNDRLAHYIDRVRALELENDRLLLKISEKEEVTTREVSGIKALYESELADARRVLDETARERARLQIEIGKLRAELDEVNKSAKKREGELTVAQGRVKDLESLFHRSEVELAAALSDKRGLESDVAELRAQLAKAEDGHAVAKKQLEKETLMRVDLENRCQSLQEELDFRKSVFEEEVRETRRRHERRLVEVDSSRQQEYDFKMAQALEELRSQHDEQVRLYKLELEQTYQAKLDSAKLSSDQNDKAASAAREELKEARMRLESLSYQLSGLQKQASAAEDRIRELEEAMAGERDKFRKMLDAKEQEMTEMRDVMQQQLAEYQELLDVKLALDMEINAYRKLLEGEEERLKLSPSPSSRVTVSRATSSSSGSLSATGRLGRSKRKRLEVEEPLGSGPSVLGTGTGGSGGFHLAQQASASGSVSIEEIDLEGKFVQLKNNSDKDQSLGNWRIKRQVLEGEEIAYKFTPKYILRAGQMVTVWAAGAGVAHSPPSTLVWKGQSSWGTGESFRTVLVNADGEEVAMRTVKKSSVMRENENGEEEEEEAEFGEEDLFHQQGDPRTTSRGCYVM
proteins of U3A human fibrosarcoma cells (4462 proteins detected) (Homo sapiens, UniProt Q15041), sequence (Q15041 whole entry): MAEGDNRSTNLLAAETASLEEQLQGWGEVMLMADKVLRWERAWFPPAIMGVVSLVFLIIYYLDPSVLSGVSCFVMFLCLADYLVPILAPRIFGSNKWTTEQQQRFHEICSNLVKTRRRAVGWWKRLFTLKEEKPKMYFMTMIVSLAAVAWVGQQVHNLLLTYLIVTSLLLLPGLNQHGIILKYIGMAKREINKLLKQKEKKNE
proteins of U3A human fibrosarcoma cells (4462 proteins detected) (Homo sapiens, UniProt Q6P3W2), sequence (Q6P3W2 whole entry): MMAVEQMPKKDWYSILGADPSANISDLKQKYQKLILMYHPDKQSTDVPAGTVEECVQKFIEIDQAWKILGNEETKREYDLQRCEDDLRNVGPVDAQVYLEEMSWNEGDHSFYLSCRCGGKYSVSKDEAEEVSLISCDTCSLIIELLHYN
proteins of U3A human fibrosarcoma cells (4462 proteins detected) (Homo sapiens, UniProt Q9NVZ3), sequence (Q9NVZ3 whole entry): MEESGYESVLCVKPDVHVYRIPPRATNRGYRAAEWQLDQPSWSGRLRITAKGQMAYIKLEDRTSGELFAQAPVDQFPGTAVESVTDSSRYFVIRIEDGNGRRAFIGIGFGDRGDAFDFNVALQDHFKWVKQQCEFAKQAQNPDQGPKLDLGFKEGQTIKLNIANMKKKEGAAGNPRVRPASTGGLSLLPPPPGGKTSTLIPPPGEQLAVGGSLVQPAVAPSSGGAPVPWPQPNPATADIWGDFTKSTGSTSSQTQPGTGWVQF

For `CCc1nc(N)nc(N)c1-c1ccc(Cl)cc1` [pyrimethamine], the “Log2 (PYR/DMSO)” value [1] was 0.14, the “Log2 (PYR/DMSO)” value [2] was 0.19 and the “Log2 (PYR/DMSO)” value [3] was 0.20. The “Log2 (PYR/DMSO)” value [4] was 0.15, the “Log2 (PYR/DMSO)” value [5] was -0.04 and the “Log2 (PYR/DMSO)” value [6] was -0.04. For the same compound, the “Log2 (PYR/DMSO), FRYL” value [7] was 0.28, the “Log2 (PYR/DMSO)” value [8] was 0.20 and the “Log2 (PYR/DMSO)” value [9] was -0.04. For the same compound, the “Log2 (PYR/DMSO)” value [10] was 0.15, the “Log2 (PYR/DMSO)” value [11] was 0.17 and the “Log2 (PYR/DMSO)” value [12] was 0.18. The “Log2 (PYR/DMSO), H2AFY” value [13] was 0.33, the “Log2 (PYR/DMSO), FEN1” value [14] was 0.23 and the “Log2 (PYR/DMSO)” value [15] was 0.15. For the same compound, the “Log2 (PYR/DMSO)” value [16] was 0.13, the “Log2 (PYR/DMSO)” value [17] was 0.21 and the “Log2 (PYR/DMSO), HNRNPC” value [18] was 0.27. For the same compound, the “Log2 (PYR/DMSO)” value [19] was 0.22, the “Log2 (PYR/DMSO)” value [20] was 0.18 and the “Log2 (PYR/DMSO)” value [21] was 0.16. For the same compound, the “Log2 (PYR/DMSO)” value [22] was 0.15, the “Log2 (PYR/DMSO), STIL” value [23] was 0.35 and the “Log2 (PYR/DMSO)” value [24] was 0.20. The “Log2 (PYR/DMSO)” value [25] was 0.18, the “Log2 (PYR/DMSO), CTNNA1” value [26] was 0.23 and the “Log2 (PYR/DMSO)” value [27] was 0.13. The “Log2 (PYR/DMSO)” value [28] was 0.14 and the “Log2 (PYR/DMSO)” value [29] was 0.14.

Source: PMC8800111 (The Journal of Biological Chemistry, 2021)
